Test results published in ChEMBL document CHEMBL5724914, “Linking interpersonal differences in gut microbiota composition and drug biotransformation activity” (2024).

What was measured:
[1] = The drug is tested on Z-024 corresponding to pig gut metagenome with ENA study accession number: PRJEB37062 and ENA sample accession number: ERS12561823 for biotransformation under anaerobic condition. The drug concentrations were measured over 9 timepoints collected between 0 and 24 hours of incubation by liquid-chromatography-coupled mass spectrometry (LC–MS); conditions: 2 µM
[2] = The drug is tested on WLS-038 corresponding to human gut metagenome with ENA study accession number: PRJEB37062 and ENA sample accession number: ERS12561745 for biotransformation under anaerobic condition. The drug concentrations were measured over 9 timepoints collected between 0 and 24 hours of incubation by liquid-chromatography-coupled mass spectrometry (LC–MS); conditions: 2 µM
[3] = The drug is tested on WLS-039 corresponding to human gut metagenome with ENA study accession number: PRJEB37062 and ENA sample accession number: ERS12561746 for biotransformation under anaerobic condition. The drug concentrations were measured over 9 timepoints collected between 0 and 24 hours of incubation by liquid-chromatography-coupled mass spectrometry (LC–MS); conditions: 2 µM
[4] = The drug is tested on Z-003 corresponding to pig gut metagenome with ENA study accession number: PRJEB37062 and ENA sample accession number: ERS12561803 for biotransformation under anaerobic condition. The drug concentrations were measured over 9 timepoints collected between 0 and 24 hours of incubation by liquid-chromatography-coupled mass spectrometry (LC–MS); conditions: 2 µM
[5] = human gut metagenome, 24 h, 2 µM
[6] = The drug is tested on WLS-240 corresponding to human gut metagenome with ENA study accession number: PRJEB37062 and ENA sample accession number: ERS12561773 for biotransformation under anaerobic condition. The drug concentrations were measured over 9 timepoints collected between 0 and 24 hours of incubation by liquid-chromatography-coupled mass spectrometry (LC–MS); conditions: 2 µM
[7] = The drug is tested on WLS-069 corresponding to human gut metagenome with ENA study accession number: PRJEB37062 and ENA sample accession number: ERS12561748 for biotransformation under anaerobic condition. The drug concentrations were measured over 9 timepoints collected between 0 and 24 hours of incubation by liquid-chromatography-coupled mass spectrometry (LC–MS); conditions: 2 µM
[8] = human gut metagenome, 24 h, 2 µM; remark: listed apart in the source
[9] = The drug is tested on WLS-350 corresponding to human gut metagenome with ENA study accession number: PRJEB37062 and ENA sample accession number: ERS12561789 for biotransformation under anaerobic condition. The drug concentrations were measured over 9 timepoints collected between 0 and 24 hours of incubation by liquid-chromatography-coupled mass spectrometry (LC–MS); conditions: 2 µM
[10] = human gut metagenome, 24 h, 2 µM; remark: listed apart in the source
[11] = The drug is tested on WLS-077 corresponding to human gut metagenome with ENA study accession number: PRJEB37062 and ENA sample accession number: ERS12561750 for biotransformation under anaerobic condition. The drug concentrations were measured over 9 timepoints collected between 0 and 24 hours of incubation by liquid-chromatography-coupled mass spectrometry (LC–MS); conditions: 2 µM
[12] = human gut metagenome, 24 h, 2 µM; remark: listed apart in the source
[13] = human gut metagenome, 24 h, 2 µM; remark: listed apart in the source
[14] = human gut metagenome, 24 h, 2 µM; remark: listed apart in the source
[15] = human gut metagenome, 24 h, 2 µM; remark: listed apart in the source
[16] = human gut metagenome, 24 h, 2 µM; remark: listed apart in the source
[17] = The drug is tested on WLS-086 corresponding to human gut metagenome with ENA study accession number: PRJEB37062 and ENA sample accession number: ERS12561752 for biotransformation under anaerobic condition. The drug concentrations were measured over 9 timepoints collected between 0 and 24 hours of incubation by liquid-chromatography-coupled mass spectrometry (LC–MS); conditions: 2 µM
Note: call rule not given here.

SMILES | Bacterial Biotransformation [1] | Bacterial Biotransformation [2] | Bacterial Biotransformation [3] | Bacterial Biotransformation [4] | Bacterial Biotransformation [5] | Bacterial Biotransformation [6] | Bacterial Biotransformation [7] | Bacterial Biotransformation [8] | Bacterial Biotransformation [9] | Bacterial Biotransformation [10] | Bacterial Biotransformation [11] | Bacterial Biotransformation [12] | Bacterial Biotransformation [13] | Bacterial Biotransformation [14] | Bacterial Biotransformation [15] | Bacterial Biotransformation [16] | Bacterial Biotransformation [17]
CCC1(c2ccc(N)cc2)CCC(=O)NC1=O (configuration not stated) [AMINOGLUTETHIMIDE] | Compound metabolized | Compound NOT metabolized | Compound NOT metabolized | Compound NOT metabolized | Compound NOT metabolized | Compound NOT metabolized | Compound NOT metabolized | Compound NOT metabolized | Compound NOT metabolized | Compound NOT metabolized | Compound NOT metabolized | Compound NOT metabolized | Compound NOT metabolized | Compound NOT metabolized | Compound NOT metabolized | Compound NOT metabolized | Compound NOT metabolized
OC(CCN1CCCCC1)(c1ccccc1)C1CC2C=CC1C2 (configuration not stated) [BIPERIDEN] |  | Compound NOT metabolized | Compound NOT metabolized |  | Compound NOT metabolized | Compound NOT metabolized | Compound NOT metabolized | Compound metabolized | Compound NOT metabolized | Compound metabolized | Compound NOT metabolized | Compound NOT metabolized | Compound NOT metabolized | Compound NOT metabolized | Compound NOT metabolized | Compound metabolized | Compound metabolized
CC(=O)O[C@]1(C(C)=O)CC[C@H]2[C@@H]3C=C(Cl)C4=CC(=O)[C@@H]5C[C@@H]5[C@]4(C)[C@H]3CC[C@@]21C [CYPROTERONE ACETATE] |  | Compound metabolized | Compound metabolized | Compound metabolized | Compound metabolized | Compound metabolized | Compound metabolized | Compound metabolized | Compound metabolized | Compound metabolized | Compound metabolized | Compound metabolized | Compound metabolized | Compound metabolized | Compound metabolized | Compound metabolized | Compound metabolized
CN1C[C@H](C(=O)N[C@]2(C)O[C@@]3(O)[C@@H]4CCCN4C(=O)[C@H](Cc4ccccc4)N3C2=O)C=C2c3cccc4[nH]cc(c34)C[C@H]21.CN1C[C@H](C(=O)N[C@]2(C)O[C@@]3(O)[C@@H]4CCCN4C(=O)[C@H](Cc4ccccc4)N3C2=O)C=C2c3cccc4[nH]cc(c34)C[C@H]21.O=C(O)C(O)C(O)C(=O)O [ERGOTAMINE TARTRATE] |  | Compound NOT metabolized | Compound metabolized |  |  | Compound metabolized | Compound metabolized | Compound NOT metabolized | Compound metabolized | Compound metabolized | Compound metabolized | Compound metabolized | Compound metabolized | Compound metabolized | Compound metabolized | Compound metabolized | Compound metabolized
COC(=O)C1=C(C)NC(C)=C(C(=O)OC(C)C)C1c1cccc2nonc12 (configuration not stated) [ISRADIPINE] |  | Compound NOT metabolized |  | Compound metabolized | Compound metabolized | Compound metabolized | Compound metabolized | Compound metabolized | Compound metabolized | Compound metabolized | Compound NOT metabolized | Compound metabolized | Compound metabolized | Compound metabolized | Compound metabolized | Compound metabolized | Compound metabolized
CN(C(=O)CN(CCO)CC(=O)N(C)C(C)(C)Cc1ccccc1)C(C)(C)Cc1ccccc1 [OXETHAZAINE] |  | Compound metabolized | Compound metabolized |  | Compound metabolized | Compound metabolized | Compound metabolized | Compound metabolized | Compound metabolized | Compound metabolized | Compound metabolized | Compound metabolized | Compound metabolized | Compound metabolized | Compound metabolized | Compound metabolized | Compound metabolized
CN1CCN(CC/C=C2/c3ccccc3Sc3ccc(S(=O)(=O)N(C)C)cc32)CC1 [THIOTHIXENE] |  | Compound metabolized | Compound metabolized |  | Compound metabolized | Compound metabolized | Compound metabolized | Compound NOT metabolized | Compound metabolized | Compound metabolized | Compound NOT metabolized | Compound metabolized | Compound metabolized | Compound metabolized | Compound metabolized | Compound metabolized | Compound metabolized
CS(=O)(=O)O.O.O.O.O=C1Cc2cc(CCN3CCN(c4nsc5ccccc45)CC3)c(Cl)cc2N1 [ZIPRASIDONE MESYLATE] |  | Compound metabolized | Compound metabolized |  | Compound metabolized | Compound metabolized | Compound metabolized | Compound NOT metabolized | Compound metabolized | Compound metabolized | Compound NOT metabolized | Compound metabolized | Compound metabolized | Compound metabolized | Compound metabolized | Compound metabolized | Compound metabolized
